# Like-named read-outs stand apart in the source and are kept apart here. Marks after values point to notes of the source that are not given here.
# What was measured:
# [1] = test system: differentiated Caco-2 cells; experiment: WST-1 cytotoxicity assay, viability of differentiated Caco-2 cells after 2 h exposure; type: cell-based, Human
# Description: (§1) Human colon carcinoma cells (Caco-2 cells) were obtained from the American Type Culture Collection (ATCC, Rockville, MD, USA). Caco-2 cells were cultured in complete culture medium, composed of DMEM GlutaMAX with 10% FBS (v/v), 1% P/S (v/v), and 1% NEAA (v/v) at 37 °C in a 5% (v/v) CO2 incubator. In this study, Caco-2 cells within passages 10–15 were utilized.
# The WST-1 assay was used to quantify the viability of differentiated Caco-2 cells upon exposure to the individual AGEs and their equimolar mixture. To this end, Caco-2 cells were seeded in 96-well plates at 3 × 10^4 cells/well (100 μL) and incubated at 37 °C under 5% (v/v) CO2 for 20 days. The complete culture medium was refreshed on each alternate day. After full differentiation, the culture medium was removed, and the cells were washed with HBSS (containing 1% (v/v) HEPES) twice on the testing day. The same volume (100 μL) of HBSS containing a series of concentrations of the different individual test compounds or of a mixture containing all 10 AGEs was added from a 20-times-concentrated stock solution in HBSS. The test concentrations were designed based on the estimated daily intake of total AGEs (0.55–0.66 mg/(kg·day)) and high-exposure scenarios (1.4–1.8 mg/(kg day)). […] After exposure for 2 h, the absorbance at 440 and 620 nm was measured in a plate spectrophotometer (Molecular Devices, San Jose, CA, USA, Spectra Max M2). After measurement, the cell viability was calculated as cell viability (%)=(Atested 440 nm−Atested 620 nm)/(Acontrol 440 nm−Acontrol 620 nm)×100
# [2] = Transport of AGE mixture across Caco-2 cell layer (transwell, apical to basolateral); type: in vitro ADME, Human; conditions: human; for recovery at 2 h, 100 μmol/L: read-out: percentage of the amount added at the apical side at t = 0: recovery; for Papp at 120 min, 100 μmol/L: data from 120 min
# Description: as §1
# (§2) Caco-2 cells were cultured until reaching 50%–60% confluence (undifferentiated Caco-2 cells), followed by trypsinization. Then, cells were seeded at 3 × 10^4 cells per insert in 100 μL of complete culture medium into the transwell inserts of a 24-well transwell plate, and 600 μL of complete culture medium was added to the basolateral compartments. In both the apical and basolateral compartments, the medium was renewed every other day. After 2 weeks, the transepithelial electrical resistance (TEER) value was measured using a Millicell ERS-2 Electrical Resistance System (Burlington, MA, USA) every other day. Only wells with a TEER value of >400 Ω/cm^2 were used for transport experiments. Moreover, the TEER value was measured before and after the transport experiment to ascertain that the Caco-2 cell layer remained intact during the whole transport experiment.
# (§3) Transport experiments were performed after 20 days of differentiation of the Caco-2 cells. The culture medium was replaced with HBSS (containing 1% (v/v) HEPES) 30 min prior to testing in both the apical and basolateral compartments. After the 30 min preincubation, 100 μL of HBSS containing a mixture of the 10 different AGEs including CML, CEL, GALA, argpyrimidine, MG-H1, GOLD, GOLA, MOLD, pentosidine, and pyrraline, each at 100 μmol/L, was added to the apical compartment after removing the preincubation medium, while the basolateral medium was replaced by 600 μL of HBSS. […] At 120 min, a 10 μL sample from the apical side was taken for calculating apical side retention (nontransported percentage).
# (§4) The apparent permeability coefficient (Papp) value was calculated according to the methodology described by Yee.
# (§5) AGEs were quantified by LC-MS using a Shimadzu Nexera XR LC-40D XR UPLC system (Kyoto, Japan) equipped with a UPLC Amide column (100 mm × 2.1 mm, 1.7 μm) without derivatization coupled with a Shimadzu LCMS-8045 triple quadrupole mass spectrometer (Kyoto, Japan). The analytical column was maintained at 40 °C throughout the quantification process. A multistep binary gradient system of water containing 0.1% (v/v) formic acid (solvent A) and acetonitrile containing 0.1% (v/v) formic acid (solvent B) was used. In the whole gradient program, the total proportion of solvents A and B is always equal to 100%. The gradient program was designed as follows: 75% solvent B to 12.5% solvent B from 0 to 10 min, followed by 12.5% solvent B from 10 to 11 min. […] The initial flow rate was set to 0.30 mL/min. Subsequently, it was reduced to 0.25 mL/min at 0.3 min, which was kept until 10 min. Afterward, there was a gradual decrease, reaching 0.15 mL/min at 11 min, and this rate was maintained until 12 min. […] Between 1 and 11 min of gradient running, the line was set to MS, and for the other time periods, the line was set to waste. The retention time and mass spectrometry parameters of individual AGEs are listed in Table S1 and the chromatograms of the samples are shown in Figure S1.
# Caco-2 cell layer = experiment: as above; type: in vitro ADME, Human; conditions: for percentage of the amount added at the apical side at t = 0: apical side / percentage of the amount added at the apical side at t = 0: basolateral side / percentage of the amount added at the apical side at t = 0: apical side (nontransported) / percentage of the amount added at the apical side at t = 0: basolateral side (transported): mixture, each AGE 100 μmol/L, 2 h; for percentage of the amount added at the apical side at t = 0: apical side (nontransported) / percentage of the amount added at the apical side at t = 0: basolateral side (transported): standard treatment
# Description: as §1, §2, §3, §4, §5
# PepT1 = experiment: as above; type: in vitro ADME, Human; conditions: human, mixture, each AGE 100 μmol/L; for recovery at 2 h, 100 μmol/L: Caco-2, with Gly-Sar 10 mmol/L (apical compartment), Gly-Sar 10 mmol/L, read-out: percentage of the amount added at the apical side at t = 0: recovery; for Papp at 120 min, 100 μmol/L: Caco-2, with Gly-Sar 10 mmol/L (apical), 10 mmol/L Gly-Sar apical (PepT1 inhibition), data from 120 min
# Description: as §1, §2, §3, §4, §5
# Caco-2 cell monolayer = experiment: Accumulation of AGEs in the Caco-2 cell monolayer after transport experiment; type: in vitro ADME, Human; conditions: mixture, each AGE 100 μmol/L, 2 h
# Description: After the transport experiment, the cell monolayer on the inset membrane was washed three times with HBSS and three times with PBS. […] The samples were subsequently centrifuged at 16 000g for 20 min at 4 °C, and the supernatant was collected for further analysis by LC-MS.
# as §5, with “The” for “AGEs were quantified by LC-MS using a Shimadzu Nexera XR LC-40D XR UPLC system (Kyoto, Japan) equipped with a UPLC Amide column (100 mm × 2.1 mm, 1.7 μm) without derivatization coupled with a Shimadzu LCMS-8045 triple quadrupole mass spectrometer (Kyoto, Japan). The”, “100%.” for “100%. The gradient program was designed as follows: 75% solvent B to 12.5% solvent B from 0 to 10 min, followed by 12.5% solvent B from 10 to 11 min.”
# [3] = Caco-2, 4 °C, mixture, each AGE 100 μmol/L
# [4] = Caco-2, cytochalasin D pretreatment, mixture, each AGE 100 μmol/L
# [5] = Caco-2, standard treatment (37 °C), equimolar mixture of 10 AGEs, each 100 μmol/L apical
# [6] = Caco-2, standard treatment, mixture, each AGE 100 μmol/L
# [7] = Caco-2, cytochalasin D 1 μg/mL, 30 min apical preincubation, mixture, each AGE 100 μmol/L
Structure (SMILES),"recovery at 2 h, 100 μmol/L [2, 3] [%]","Papp at 120 min, 100 μmol/L [2, 3] [×10⁻⁶ cm/s]","recovery at 2 h, 100 μmol/L [2, 4] [%]","Papp at 120 min, 100 μmol/L [2, 5] [×10⁻⁶ cm/s]","recovery at 2 h, 100 μmol/L [2, 6] [%]","Papp at 120 min, 100 μmol/L [2, 7] [×10⁻⁶ cm/s]",percentage of the amount added at the apical side at t = 0: apical side (Caco-2 cell layer; 4 °C),percentage of the amount added at the apical side at t = 0: basolateral side (Caco-2 cell layer; 4 °C),percentage of the amount added at the apical side at t = 0: apical side (Caco-2 cell layer; Gly-Sar 10 mmol/L),percentage of the amount added at the apical side at t = 0: basolateral side (Caco-2 cell layer; Gly-Sar 10 mmol/L),percentage of the amount added at the apical side at t = 0: apical side (Caco-2 cell layer; cytochalasin D pretreatment),percentage of the amount added at the apical side at t = 0: basolateral side (Caco-2 cell layer; cytochalasin D pretreatment),percentage of the amount added at the apical side at t = 0: apical side (nontransported) (Caco-2 cell layer),percentage of the amount added at the apical side at t = 0: basolateral side (transported) (Caco-2 cell layer),"recovery at 2 h, 100 μmol/L (PepT1) [%]","Papp at 120 min, 100 μmol/L (PepT1) [×10⁻⁶ cm/s]",percentage of the amount added at the apical side at t = 0: accumulation (Caco-2 cell monolayer; 4 °C),percentage of the amount added at the apical side at t = 0: accumulation (Caco-2 cell monolayer; Gly-Sar 10 mmol/L),percentage of the amount added at the apical side at t = 0: accumulation (Caco-2 cell monolayer; cytochalasin D pretreatment),further results
"N[C@@H](CCCCn1cc[n+](CCCC[C@H](N)C(=O)O)c1)C(=O)O [GOLD, glyoxal-derived lysine dimer]",89.8 ± 13.2,0.069,102 ± 9.5,0.134,95 ± 8.2,0.32,89.6 ± 13.2 ^b %,0.1 ± 0.1 ^b %,93.7 ± 7.9 ^ab %,0.2 ± 0.1 ^b %,101.2 ± 9.4 ^a %,0.8 ± 0.3 ^a %,94.6 ± 8.1 ^ab %,0.3 ± 0.2 ^b %,94.1 ± 8,0.1,0.0 ± 0.0 ^c %,0.1 ± 0.0 ^a %,0.0 ± 0.0 ^ab %,effect on cell viability [1]: did not affect cell viability up to the highest concentration tested; effect of 4 °C on transport compared to 37 °C (Caco-2 cell layer; 4 °C versus 37 °C): significantly reduced
"CC1NC(NCCC[C@H](N)C(=O)O)=NC1=O (stereo partly drawn) [MG-H1, methylglyoxal–hydroimidazolone]",89.7 ± 5.4,0.107,94.6 ± 4.2,0.182,94.1 ± 3.6,0.526,89.7 ± 5.5 ^a %,0.3 ± 0.1 ^b %,90.1 ± 5.8 ^a %,0.4 ± 0.2 ^b %,93.0 ± 4.5 ^a %,1.2 ± 0.6 ^a %,93.4 ± 3.6 ^a %,0.4 ± 0.2 ^b %,90.8 ± 5.9,0.168,0.0 ± 0.0 ^b %,0.3 ± 0.1 ^b %,0.3 ± 0.1 ^b %,concentration that did not significantly affect cell viability ([1]; for the mixture: concentration of each AGE): ≤ 750 µM; percentage of the amount added at the apical side at t = 0: accumulation (intracellular) (Caco-2 cell monolayer; standard treatment): 0.3 ± 0.1 ^a %

# From paper PMC12426922, “Fingerprinting the Intestinal Transport of Low-Molecular-Mass Advanced Glycation End-Products (AGEs) Using a Caco‑2 Transwell Model” (Journal of Agricultural and Food Chemistry, 2025)
